Measured values as given in ChEMBL document CHEMBL1201862, “PubChem BioAssay data set” (2004).
Values belong to the compound of their own block, whether it stands above or below them. Active and inactive are the calls of the source.

How the values were obtained:
HeLa = test: ATP-based viability loss in HeLa cells – cell-based, CellTiter-Glo luminescence, cherry-pick samples, cytotoxicity control for MITF activator project, dose response (AID 540259); format: functional; settings: Homo sapiens
[1] = decrease of insulin promoter-GFP reporter – imaging, high-content screening, mouse beta cells (AID 1628); format: functional; settings: MIN6
[2] = MIN6 cell viability loss – mouse insulinoma, cytotoxicity control, dose response (AID 2122); format: functional;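 further: confirmatory high-throughput counterscreen run to flag cytotoxic compounds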
Cytochrome P450 3A4 = Cytochrome P450 3A4 (Homo sapiens, UniProt P08684);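 further: CYP3A4 tested as one member of a cytochrome P450 panel screen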
[3] = biological target: T1, Voltage-gated N-type calcium channel alpha-1B subunit/Amyloid beta A4 precursor protein-binding family A member 1 (Homo sapiens, UniProt Q00975+Q02410); format: protein assay
[4] = biological target: T1, Voltage-gated N-type calcium channel alpha-1B subunit/Amyloid beta A4 precursor protein-binding family A member 1; format: protein assay; remark: listed apart in the source
INS1 = test: INS-1E survival protection against cytokine death – cell-based, luminescence, retest, dose response (AID 449756); format: functional; settings: Rattus norvegicus;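 further: cell death triggered by IL-1 beta plus TNF-alpha plus IFN-gamma mixture; protective hits raise ATP signal compared with cytokine alone wells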
[5] = reduction of Shn3 3'UTR-driven luciferase in osteoblasts – cell-based, Clone20 osteoblasts, firefly luciferase, cherry-picked, dose response (AID 624132); format: functional;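 further: firefly luciferase luminescence from reporter carrying the Shn3 3'UTR in osteoblasts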
[6] = loss of viability in HepG2 cells – cell-based, CellTiter-Glo, cherry-picked, cytotoxicity control for Shn3 inhibitor project, dose response (AID 624134); format: functional
[7] = non-specific 3'UTR reporter inhibition in Clone20-Shn3RL – cell-based, Renilla luciferase, cherry-picked, counter-screen for Shn3 inhibitor project, dose response (AID 624133); format: functional
[8] = biological target: G-protein coupled receptor 55 (Homo sapiens, UniProt Q9Y2T6); test: selective activators of receptor GPR55 – imaging, U2OS cells, beta-arrestin-GFP redistribution, primary screen (AID 1961); format: functional
Bcl-2-related protein A1 = biological target: T2, Bcl-2-related protein A1 (Mus musculus, UniProt Q07440); format: functional;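 further: confirmatory dose–response counterscreen on Bfl-1, used to check hits from a UBC13 polyubiquitin inhibitor campaign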
T2 sequence (Q07440 whole entry): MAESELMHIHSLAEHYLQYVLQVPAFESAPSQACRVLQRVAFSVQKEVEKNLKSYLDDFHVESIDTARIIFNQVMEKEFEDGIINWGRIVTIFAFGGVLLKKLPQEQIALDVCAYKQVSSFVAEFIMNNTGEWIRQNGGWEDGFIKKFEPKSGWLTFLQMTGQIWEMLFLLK

[9] = biological target: T3, Ubiquitin-conjugating enzyme E2 N (Homo sapiens, UniProt P61088); format: functional
T3 sequence (P61088 whole entry): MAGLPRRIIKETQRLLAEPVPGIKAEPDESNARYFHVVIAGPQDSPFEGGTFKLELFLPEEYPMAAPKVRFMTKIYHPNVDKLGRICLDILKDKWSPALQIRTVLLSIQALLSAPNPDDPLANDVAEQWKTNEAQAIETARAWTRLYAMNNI

[10] = biological target: T3, Ubiquitin-conjugating enzyme E2 N; format: functional; remark: listed apart in the source
[11] = biological target: T4, Rac GTPase-activating protein 1 (Homo sapiens, UniProt Q9H0H5); test: blockers of MgcRacGAP-driven Rac1 GTP hydrolysis – biochemical, ADP Hunter fluorescence, primary and confirmatory, confirmation (AID 624330); format: functional
T4 sequence (Q9H0H5 whole entry): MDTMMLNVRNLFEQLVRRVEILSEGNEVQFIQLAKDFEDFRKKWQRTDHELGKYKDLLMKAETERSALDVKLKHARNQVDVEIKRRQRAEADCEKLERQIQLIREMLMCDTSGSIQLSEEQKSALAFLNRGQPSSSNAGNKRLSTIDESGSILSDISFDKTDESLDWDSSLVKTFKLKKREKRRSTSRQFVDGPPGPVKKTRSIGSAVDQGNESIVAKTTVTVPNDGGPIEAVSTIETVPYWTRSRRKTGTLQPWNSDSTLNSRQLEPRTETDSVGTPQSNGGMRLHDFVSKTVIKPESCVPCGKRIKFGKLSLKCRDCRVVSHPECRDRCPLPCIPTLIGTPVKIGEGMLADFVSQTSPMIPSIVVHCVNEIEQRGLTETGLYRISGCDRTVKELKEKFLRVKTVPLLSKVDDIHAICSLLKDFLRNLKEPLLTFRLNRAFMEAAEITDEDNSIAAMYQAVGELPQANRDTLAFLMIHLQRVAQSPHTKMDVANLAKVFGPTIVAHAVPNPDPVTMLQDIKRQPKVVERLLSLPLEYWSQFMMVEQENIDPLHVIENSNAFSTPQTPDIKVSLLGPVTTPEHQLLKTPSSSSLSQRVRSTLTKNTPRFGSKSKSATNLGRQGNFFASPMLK

T1 sequence (Q00975 whole entry): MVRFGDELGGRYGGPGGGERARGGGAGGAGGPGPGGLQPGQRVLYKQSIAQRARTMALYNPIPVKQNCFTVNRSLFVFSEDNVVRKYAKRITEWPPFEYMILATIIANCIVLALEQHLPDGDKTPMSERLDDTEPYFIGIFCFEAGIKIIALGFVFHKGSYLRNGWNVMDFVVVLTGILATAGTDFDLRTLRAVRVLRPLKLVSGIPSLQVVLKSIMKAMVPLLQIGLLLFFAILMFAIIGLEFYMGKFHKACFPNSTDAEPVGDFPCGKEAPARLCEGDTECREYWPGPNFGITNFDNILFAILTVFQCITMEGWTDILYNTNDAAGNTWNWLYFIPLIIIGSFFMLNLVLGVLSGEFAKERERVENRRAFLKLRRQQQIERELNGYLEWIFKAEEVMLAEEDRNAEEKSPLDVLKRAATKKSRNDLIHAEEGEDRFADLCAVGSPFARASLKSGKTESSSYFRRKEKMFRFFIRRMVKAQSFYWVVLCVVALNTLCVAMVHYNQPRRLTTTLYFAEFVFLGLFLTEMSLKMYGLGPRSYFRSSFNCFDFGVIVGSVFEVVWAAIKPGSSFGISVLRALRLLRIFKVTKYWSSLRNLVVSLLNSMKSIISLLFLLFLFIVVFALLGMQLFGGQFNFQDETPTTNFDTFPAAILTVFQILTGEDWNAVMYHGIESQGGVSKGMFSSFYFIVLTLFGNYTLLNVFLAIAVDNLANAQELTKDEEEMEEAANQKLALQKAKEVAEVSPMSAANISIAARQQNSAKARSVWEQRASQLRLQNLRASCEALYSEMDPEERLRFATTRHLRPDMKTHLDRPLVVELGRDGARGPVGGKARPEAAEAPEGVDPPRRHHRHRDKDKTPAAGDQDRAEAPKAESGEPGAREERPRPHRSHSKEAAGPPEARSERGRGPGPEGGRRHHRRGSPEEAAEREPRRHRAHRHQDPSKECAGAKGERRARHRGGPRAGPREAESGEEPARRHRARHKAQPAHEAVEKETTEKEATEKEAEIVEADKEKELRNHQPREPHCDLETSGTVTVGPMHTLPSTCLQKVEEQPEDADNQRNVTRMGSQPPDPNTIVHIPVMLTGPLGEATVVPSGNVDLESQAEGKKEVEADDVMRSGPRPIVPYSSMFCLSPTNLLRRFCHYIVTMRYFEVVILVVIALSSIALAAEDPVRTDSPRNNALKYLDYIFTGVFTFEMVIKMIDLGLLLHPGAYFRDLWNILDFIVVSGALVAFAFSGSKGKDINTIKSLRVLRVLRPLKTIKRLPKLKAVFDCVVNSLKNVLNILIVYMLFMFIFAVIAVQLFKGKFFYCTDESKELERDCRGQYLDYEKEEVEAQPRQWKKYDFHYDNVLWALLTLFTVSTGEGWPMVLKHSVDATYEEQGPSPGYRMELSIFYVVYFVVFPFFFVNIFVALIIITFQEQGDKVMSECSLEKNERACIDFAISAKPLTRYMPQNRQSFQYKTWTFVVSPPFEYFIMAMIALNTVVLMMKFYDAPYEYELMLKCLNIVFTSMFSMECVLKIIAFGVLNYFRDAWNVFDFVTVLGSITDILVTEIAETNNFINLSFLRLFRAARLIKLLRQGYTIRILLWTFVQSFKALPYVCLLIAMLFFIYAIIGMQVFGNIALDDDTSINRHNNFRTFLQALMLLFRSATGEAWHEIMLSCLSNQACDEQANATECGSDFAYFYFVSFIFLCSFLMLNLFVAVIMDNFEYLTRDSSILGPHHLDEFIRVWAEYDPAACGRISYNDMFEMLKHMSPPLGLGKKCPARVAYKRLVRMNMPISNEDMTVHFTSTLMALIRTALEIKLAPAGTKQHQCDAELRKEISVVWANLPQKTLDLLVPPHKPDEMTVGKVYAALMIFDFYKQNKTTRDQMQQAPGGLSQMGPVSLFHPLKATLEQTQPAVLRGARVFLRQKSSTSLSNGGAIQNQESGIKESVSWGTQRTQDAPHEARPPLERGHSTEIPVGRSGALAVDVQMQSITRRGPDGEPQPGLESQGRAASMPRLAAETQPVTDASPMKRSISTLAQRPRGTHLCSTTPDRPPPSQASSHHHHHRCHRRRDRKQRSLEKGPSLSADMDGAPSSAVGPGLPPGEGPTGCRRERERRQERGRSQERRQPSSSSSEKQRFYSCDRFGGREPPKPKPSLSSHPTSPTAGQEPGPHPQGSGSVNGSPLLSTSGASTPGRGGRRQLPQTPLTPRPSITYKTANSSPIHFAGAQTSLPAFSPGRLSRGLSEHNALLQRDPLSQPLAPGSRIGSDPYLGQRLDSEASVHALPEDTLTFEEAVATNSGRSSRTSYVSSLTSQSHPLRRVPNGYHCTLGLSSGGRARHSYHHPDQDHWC
T1 sequence (Q02410 whole entry): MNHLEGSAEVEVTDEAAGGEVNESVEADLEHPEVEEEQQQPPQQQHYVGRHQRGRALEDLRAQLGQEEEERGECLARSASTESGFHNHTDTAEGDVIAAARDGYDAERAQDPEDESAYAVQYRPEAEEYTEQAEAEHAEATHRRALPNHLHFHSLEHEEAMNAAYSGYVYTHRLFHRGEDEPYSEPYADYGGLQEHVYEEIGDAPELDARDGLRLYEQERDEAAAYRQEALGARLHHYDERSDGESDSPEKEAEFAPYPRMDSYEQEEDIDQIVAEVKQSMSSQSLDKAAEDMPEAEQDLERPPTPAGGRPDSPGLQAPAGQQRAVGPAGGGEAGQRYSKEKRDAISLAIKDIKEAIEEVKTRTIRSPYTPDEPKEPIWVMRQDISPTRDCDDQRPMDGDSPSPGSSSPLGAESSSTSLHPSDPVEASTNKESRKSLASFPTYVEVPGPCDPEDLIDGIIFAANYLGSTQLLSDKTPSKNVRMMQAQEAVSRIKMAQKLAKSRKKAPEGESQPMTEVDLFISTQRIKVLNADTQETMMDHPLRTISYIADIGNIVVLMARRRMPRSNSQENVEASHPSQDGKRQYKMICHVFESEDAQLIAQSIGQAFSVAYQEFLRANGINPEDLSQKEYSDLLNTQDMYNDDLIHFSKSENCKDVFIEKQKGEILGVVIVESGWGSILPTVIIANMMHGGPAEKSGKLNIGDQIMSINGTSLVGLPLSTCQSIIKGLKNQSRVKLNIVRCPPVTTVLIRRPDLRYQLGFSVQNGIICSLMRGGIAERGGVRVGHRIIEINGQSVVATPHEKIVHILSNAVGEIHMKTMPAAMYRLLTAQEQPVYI
Cytochrome P450 3A4, sequence (P08684 whole entry): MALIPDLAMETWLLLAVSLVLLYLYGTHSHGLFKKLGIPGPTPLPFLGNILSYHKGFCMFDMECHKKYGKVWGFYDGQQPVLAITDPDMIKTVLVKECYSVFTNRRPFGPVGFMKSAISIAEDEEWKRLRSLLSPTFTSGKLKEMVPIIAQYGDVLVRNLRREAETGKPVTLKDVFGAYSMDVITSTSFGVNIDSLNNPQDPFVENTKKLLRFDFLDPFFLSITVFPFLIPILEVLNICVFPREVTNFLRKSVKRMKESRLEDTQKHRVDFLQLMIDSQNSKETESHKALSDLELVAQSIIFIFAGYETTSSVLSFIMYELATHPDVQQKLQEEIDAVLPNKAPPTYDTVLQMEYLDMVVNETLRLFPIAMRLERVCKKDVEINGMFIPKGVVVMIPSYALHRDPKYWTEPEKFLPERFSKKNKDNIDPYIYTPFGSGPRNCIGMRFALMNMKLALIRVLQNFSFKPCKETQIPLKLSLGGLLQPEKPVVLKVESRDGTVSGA
G-protein coupled receptor 55, sequence (Q9Y2T6 whole entry): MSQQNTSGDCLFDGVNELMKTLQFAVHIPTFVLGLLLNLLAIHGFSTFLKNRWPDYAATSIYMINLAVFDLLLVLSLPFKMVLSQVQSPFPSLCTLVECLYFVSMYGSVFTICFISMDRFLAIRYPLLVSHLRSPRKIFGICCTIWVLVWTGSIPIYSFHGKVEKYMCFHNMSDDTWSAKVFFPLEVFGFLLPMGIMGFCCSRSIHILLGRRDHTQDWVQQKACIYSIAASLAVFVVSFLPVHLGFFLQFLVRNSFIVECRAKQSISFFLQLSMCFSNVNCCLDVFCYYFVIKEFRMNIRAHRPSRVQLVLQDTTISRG

Structure (SMILES): Nc1ccc(O)c2c(=O)cc(-c3ccccc3Cl)oc12
AC50 (HeLa): 79.6 µM (active)

Structure (SMILES): COc1ccc(-c2c3c(nc4sc5c(O)nc(C)nc5c24)CCC3)cc1
IC50 [1]: 0.847 µM (active)
IC50 [2]: > 16 µM (inactive)

AC50 (Cytochrome P450 3A4): inconclusive
Structure (SMILES): CC1CCN(c2ccc(/C=N/n3nnnc3N)cc2[N+](=O)[O-])CC1

IC50 [3]: 12.8 µM (active)
IC50 [4]: > 50 µM (inactive)
Structure (SMILES): CCC(=O)Nc1ccc(Nc2nc(Cl)nc(Nc3ccc(NC(=O)CC)cc3)n2)cc1

Structure (SMILES): CC(CCCC(C)(C)O)NC(=O)c1cc(COc2ccc3ncccc3c2)on1 (stereo unspecified)
IC50 [1]: 1.96 µM (active)
IC50 [2]: 1.48 µM (active)
AC50 (INS1): 4.37 µM (active)
AC50 [5]: 1.75 µM (active)
AC50 [6]: 3.65 µM (active)
AC50 [7]: 1.06 µM (active)

EC50 [8]: 2.01 µM (active)
Structure (SMILES): CCN(c1ccc(N/C=C2/C(=O)N(Cc3ccc(OC)cc3)C(=O)c3ccccc32)cc1)C(C)C

AC50 (Cytochrome P450 3A4): inconclusive
Structure (SMILES): O=C(Cc1cccc2ccccc12)N/N=C/c1ccc(Sc2nc3ccccc3s2)o1

IC50 (Bcl-2-related protein A1): > 20 µM (inactive)
IC50 [9]: 11.1 µM (active)
IC50 [10]: 5.73 µM (active)
Structure (SMILES): CCOc1ccc(N(C(=O)c2snc(C(N)=O)c2N)C(C(=O)NCC2CCCO2)c2c[nH]c3ccccc23)cc1 (stereo unspecified)

IC50 (Bcl-2-related protein A1): > 20 µM (inactive)
IC50 [9]: 14.4 µM (active)
IC50 [10]: 14 µM (active)
IC50 [11]: 190 µM (active)
Structure (SMILES): C#CCOCCOCCOCCNc1nc(N2CCN(C(=O)[C@H](CCCCN)n3cc([C@@H](N)CC(C)C)nn3)CC2)nc(N2CCN(C(=O)[C@H](CCCCN)n3cc([C@@H](N)CC(C)C)nn3)CC2)n1
